{"source": "patent US20250361210A1", "about": "“3,4-DIHYDROQUINOLIN-2(1H)-ONE COMPOUND” (Kissei Pharmaceutical Co., Ltd., priority 2022, published 2025)", "note": "pIC50: −log10 of the molar value.", "data": [{"target": "T1, human TSHR (Homo sapiens, UniProt P16473)", "T1 construct": "expressed in transfected cells", "T1 sequence (P16473 21-764)": "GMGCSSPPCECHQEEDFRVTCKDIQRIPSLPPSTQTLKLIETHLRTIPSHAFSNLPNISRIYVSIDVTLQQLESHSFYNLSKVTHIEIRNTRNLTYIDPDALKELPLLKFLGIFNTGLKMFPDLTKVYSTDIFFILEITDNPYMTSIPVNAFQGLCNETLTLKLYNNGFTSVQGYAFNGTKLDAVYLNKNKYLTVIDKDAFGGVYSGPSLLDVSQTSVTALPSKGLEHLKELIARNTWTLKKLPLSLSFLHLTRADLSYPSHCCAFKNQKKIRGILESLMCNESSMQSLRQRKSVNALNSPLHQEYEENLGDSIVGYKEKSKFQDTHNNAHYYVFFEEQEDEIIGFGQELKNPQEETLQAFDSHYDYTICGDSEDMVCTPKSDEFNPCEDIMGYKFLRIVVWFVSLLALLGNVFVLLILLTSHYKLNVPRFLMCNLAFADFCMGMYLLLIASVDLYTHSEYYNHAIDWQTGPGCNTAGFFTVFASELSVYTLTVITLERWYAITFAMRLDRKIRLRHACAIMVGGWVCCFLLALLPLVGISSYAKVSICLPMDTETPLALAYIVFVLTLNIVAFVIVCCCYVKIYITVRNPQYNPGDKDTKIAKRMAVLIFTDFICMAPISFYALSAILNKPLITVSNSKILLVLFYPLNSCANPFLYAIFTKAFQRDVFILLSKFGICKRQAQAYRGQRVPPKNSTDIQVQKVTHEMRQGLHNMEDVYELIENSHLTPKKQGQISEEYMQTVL", "assay": "Antagonist activity using TSH-induced cAMP production in human TSHR-stably expressing CHO cells", "assay_type": "cell-based", "details": "human TSH 50 ng/mL", "protocol": "Measurement of Antagonist Activity Using TSH-Induced cAMP Production in Human TSHR-Stably Expressing CHO Cells as an Indicator\nThe human TSHR gene sequence (reference number NM_000369.2) was inserted into the multicloning site of pcDNA3.1(+). The constructed plasmid vector was introduced into CHO cells using the lipofection method to establish human TSHR-stably expressing CHO cells. The obtained cells were seeded at 5×10^4 cells/well in a 96-well poly-D-lysine-coated plate, and cultured in an F12 culture medium containing 10% FBS, 400 μg/mL of G418, 50 U/mL of penicillin and 50 μg/mL of streptomycin under conditions of 37° C. and 5% CO2 for 1 day. After the culture medium was removed, the cells were washed twice with 100 μL of an assay buffer solution (Hanks' Balanced Salt Solution containing 20 mM HEPES and 1 mM IBMX) per well. 30 μL of a test compound-containing assay buffer solution was added to the well and incubated at room temperature for 15 minutes. Then, 30 μL of an assay buffer solution containing human TSH (final concentration 50 ng/mL, R&D Systems, Inc.) was added, and incubated at 37° C. for 1 hour. The supernatant was removed, a Lysis and Detection Buffer 2 (Cisbio) was added, and the mixture was incubated at room temperature for 1 hour to prepare a cell lysate. According to the instruction manual of a cAMP Gs HiRange kit (Cisbio), the cell lysate, d2-labeled cAMP and anti-cAMP Europium Cryptate labeled antibodies (Cisbio) were reacted in a 384-well white microplate. Then, a fluorescence intensity ratio (measurement wavelength 665 nm/620 nm) was measured using a multi-plate reader (PHERAstar FSX, BMG LABTECH, Japan). The fluorescence intensity ratio of each sample was converted to a cAMP content using a standard curve. The cAMP content was converted as a percentage of the control value to calculate the cAMP production rate. The CAMP production rate was plotted against the test compound concentration using Prism (Graph Pad Software Inc.) to calculate the IC50 value. The IC50 of each test compound is shown in the above tables. In the tables, IC50<0.5 μM: A, 0.5 μM≤IC50<3.0 μM: B, 3.0 μM≤IC50<30 μM: C are shown.", "values": [{"smiles": "CN1C(=O)C(CC(N)=O)Cc2cccc(Oc3ccccc3)c21", "note": "(centres unmarked) [Example 1, 2-(1-methyl-2-oxo-8-phenoxy-1,2,3,4-tetrahydroquinolin-3-yl)acetamide]", "pIC50": "4.52 to 5.52"}, {"smiles": "CN1C(=O)C(NC(N)=O)Cc2cccc(Oc3ccccc3)c21", "note": "(centres unmarked) [Example 2, (1-methyl-2-oxo-8-phenoxy-1,2,3,4-tetrahydroquinolin-3-yl)urea]", "pIC50": "5.52 to 6.30"}, {"smiles": "CN1C(=O)C(NC(N)=O)Cc2cccc(Oc3ccccc3F)c21", "note": "(centres unmarked) [Example 3, (8-(2-fluorophenoxy)-1-methyl-2-oxo-1,2,3,4-tetrahydroquinolin-3-yl)urea]", "pIC50": "5.52 to 6.30"}, {"smiles": "CN1C(=O)C(NC(N)=O)Cc2cccc(Oc3cccc(F)c3)c21", "note": "(centres unmarked) [Example 4, (8-(3-fluorophenoxy)-1-methyl-2-oxo-1,2,3,4-tetrahydroquinolin-3-yl)urea]", "pIC50": "4.52 to 5.52"}, {"smiles": "CN1C(=O)C(NC(N)=O)Cc2cccc(Oc3cccc(C(F)(F)F)c3)c21", "note": "(centres unmarked) [Example 5, (1-methyl-2-oxo-8-(3-(trifluoromethyl)phenoxy)-1,2,3,4-tetrahydroquinolin-3-yl)urea]", "pIC50": "5.52 to 6.30"}, {"smiles": "CN1C(=O)C(NC(N)=O)Cc2cccc(Oc3cccc(Cl)c3)c21", "note": "(centres unmarked) [Example 6, (8-(3-chlorophenoxy)-1-methyl-2-oxo-1,2,3,4-tetrahydroquinolin-3-yl)urea]", "pIC50": "5.52 to 6.30"}, {"smiles": "CN1C(=O)C(NC(N)=O)Cc2ccc(F)c(Oc3ccccc3)c21", "note": "(centres unmarked) [Example 7]", "pIC50": "5.52 to 6.30"}, {"smiles": "CN1C(=O)C(NC(N)=O)Cc2ccc(Cl)c(Oc3ccccc3)c21", "note": "(centres unmarked) [Example 8]", "pIC50": "5.52 to 6.30"}, {"smiles": "CN1C(=O)C(NC(N)=O)Cc2cccc(Oc3ncccc3C(F)(F)F)c21", "note": "(centres unmarked) [Example 9, (1-methyl-2-oxo-8-((3-(trifluoromethyl)pyridine-2-yl)oxy)-1,2,3,4-tetrahydroquinolin-3-yl)urea]", "pIC50": "4.52 to 5.52"}, {"smiles": "CN1C(=O)[C@H](NC(N)=O)Cc2cccc(Oc3ccccc3C(F)(F)F)c21", "note": "[Example 10, ((3R)-1-methyl-2-oxo-8-(2-(trifluoromethyl)phenoxy)-1,2,3,4-tetrahydroquinolin-3-yl)urea]", "pIC50": "> 6.30"}, {"smiles": "COc1ccccc1Oc1cccc2c1N(C)C(=O)[C@H](NC(N)=O)C2", "note": "[Example 11, ((3R)-8-(2-methoxyphenoxy)-1-methyl-2-oxo-1,2,3,4-tetrahydroquinolin-3-yl)urea]", "pIC50": "4.52 to 5.52"}, {"smiles": "CN1C(=O)[C@H](NC(N)=O)Cc2cccc(Oc3cccc(C#N)c3)c21", "note": "[Example 12, ((3R)-8-(3-cyanophenoxy)-1-methyl-2-oxo-1,2,3,4-tetrahydroquinolin-3-yl)urea]", "pIC50": "4.52 to 5.52"}, {"smiles": "COc1cccc(Oc2cccc3c2N(C)C(=O)[C@H](NC(N)=O)C3)c1", "note": "[Example 13]", "pIC50": "5.52 to 6.30"}, {"smiles": "CCc1ccccc1Oc1cccc2c1N(C)C(=O)[C@H](NC(N)=O)C2", "note": "[Example 14]", "pIC50": "5.52 to 6.30"}, {"smiles": "CCc1cccc(Oc2cccc3c2N(C)C(=O)[C@H](NC(N)=O)C3)c1", "note": "[Example 15]", "pIC50": "5.52 to 6.30"}, {"smiles": "CN1C(=O)[C@H](NC(N)=O)Cc2cccc(Oc3cc(F)ccc3Cl)c21", "note": "[Example 16, ((3R)-8-(2-chloro-5-fluorophenoxy)-1-methyl-2-oxo-1,2,3,4-tetrahydroquinolin-3-yl)urea]", "pIC50": "> 6.30"}, {"smiles": "CC(C)c1ccccc1Oc1cccc2c1N(C)C(=O)[C@H](NC(N)=O)C2", "note": "[Example 17, ((3R)-1-methyl-2-oxo-8-(2-(propan-2-yl)phenoxy)-1,2,3,4-tetrahydroquinolin-3-yl)urea]", "pIC50": "5.52 to 6.30"}, {"smiles": "CN1C(=O)[C@H](NC(N)=O)Cc2cccc(Oc3ccccc3C(F)F)c21", "note": "[Example 18, ((3R)-8-(2-(difluoromethyl)phenoxy)-1-methyl-2-oxo-1,2,3,4-tetrahydroquinolin-3-yl)urea]", "pIC50": "> 6.30"}, {"smiles": "CN1C(=O)[C@H](NC(N)=O)Cc2ccc(F)c(Oc3ccccc3Cl)c21", "note": "[Example 19, ((3R)-8-(2-chlorophenoxy)-7-fluoro-1-methyl-2-oxo-1,2,3,4-tetrahydroquinolin-3-yl)urea]", "pIC50": "> 6.30"}, {"smiles": "CN1C(=O)[C@H](NC(N)=O)Cc2cccc(Oc3ccc(F)cc3Cl)c21", "note": "[Example 20, ((3R)-8-(2-chloro-4-fluorophenoxy)-1-methyl-2-oxo-1,2,3,4-tetrahydroquinolin-3-yl)urea]", "pIC50": "> 6.30"}]}]}
